Each compound was assayed against T1, rat uterus cytoplasm estrogen receptor (Rattus norvegicus, UniProt P06211) (assay: inhibition of specific binding of [3H]-moxestrol to rat uterus cytoplasm estrogen receptor). Settings: relative to moxestrol as control compound; rat uterus cytoplasm fraction; 4° C., 16 hours; DCC method.
T1 construct: the homogenate was centrifuged to give a cytoplasm fraction; from tissue; host or cells: uterus of female SD rats aged 3 to 4 weeks, cytoplasm fraction
T1 sequence (P06211 1-600): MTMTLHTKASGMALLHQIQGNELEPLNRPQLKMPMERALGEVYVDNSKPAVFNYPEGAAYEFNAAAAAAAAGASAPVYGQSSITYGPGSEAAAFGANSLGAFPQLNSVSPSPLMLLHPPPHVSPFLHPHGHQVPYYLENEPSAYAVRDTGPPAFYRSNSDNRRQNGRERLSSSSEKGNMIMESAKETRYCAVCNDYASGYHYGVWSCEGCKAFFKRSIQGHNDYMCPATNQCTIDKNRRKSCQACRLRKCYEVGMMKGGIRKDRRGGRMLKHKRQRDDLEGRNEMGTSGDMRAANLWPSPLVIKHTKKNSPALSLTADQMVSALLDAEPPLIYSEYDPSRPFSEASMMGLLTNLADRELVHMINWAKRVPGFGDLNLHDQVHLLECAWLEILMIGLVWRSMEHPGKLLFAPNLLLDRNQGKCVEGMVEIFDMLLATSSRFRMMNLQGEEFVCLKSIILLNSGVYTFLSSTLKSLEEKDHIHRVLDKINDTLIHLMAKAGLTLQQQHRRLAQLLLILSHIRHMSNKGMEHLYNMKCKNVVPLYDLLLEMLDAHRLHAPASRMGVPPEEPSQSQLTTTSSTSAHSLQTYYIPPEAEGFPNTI
Design: species or system rat (female SD)
Description: Test for inhibitory activity against the specific binding of [^3 H]-moxestrol to the rat uterus cytoplasm estrogen receptor
The above activity was measured essentially as described in the literature [J. Biol. Chem., 258 (5), 3173 (1973) and Biochem. Pharmacol., 43 (12), 2511 (1992)].
Thus, the uterus was excised from female SD rats aged 3 to 4 weeks and homogenized in 6 volumes of TETG buffer (10 mM Tris-hydrochloride, 1 mM EDTA, 12 mM thioglycerol and 10% glycerol) and the homogenate was centrifuged to give a cytoplasm fraction. ^3 H-Moxestrol and each test compound were added to this cytoplasm fraction and each mixture was incubated at 4° C. for 16 hours to allow binding to the estrogen receptor in the cytoplasm fraction.
Then, the free form of ^3 H-moxestrol was removed by the DCC method and the bound form of ^3 H-moxestrol was quantitated using a liquid scintillation counter.
Moxestrol was used as a control compound and the relative binding affinity (RBA), which was defined as the ^3 H-moxestrol binding inhibiting effect (IC50) ratio, was determined as follows: [formula]
The thus-obtained RBA values for the respective test compounds are shown below in Table 21.

Compound	RBA (relative binding affinity, 3H-moxestrol binding inhibiting effect (IC50) ratio)
Cc1c(-c2ccc(Sc3ccccc3)cc2)n(CCCCCCNC(C)C)c2ccc(O)cc12 [Example 161]	46%
CSc1ccc(-c2c(C)c3cc(O)ccc3n2CCCCCCNC2CCCC2)cc1 [Example 172]	44%
CSc1ccc(-c2c(C)c3cc(O)ccc3n2CCCCCCNC2CCC2)cc1 [Example 175, 1-(6-cyclobutylaminohexyl)-5-hydroxy-3-methyl-2-(4-methylthiophenyl)indole]	60%
CSc1ccc(-c2c(C)c3cc(O)ccc3n2CCCCCCNC2CC2)cc1 [Example 176]	64%
CSc1ccc(-c2c(C)c3cc(O)ccc3n2CCCCCCNC(C)(C)C)cc1 [Example 178]	57%
CCC(C)NCCCCCCn1c(-c2ccc(SC)cc2)c(C)c2cc(O)ccc21 (stereo not drawn) [Example 179]	60%
CSc1ccc(-c2c(C)c3cc(O)ccc3n2CCCCCCNCc2ccccc2)cc1 [Example 181]	52%
CCC(C)(C)NCCCCCCn1c(-c2ccc(SC)cc2)c(C)c2cc(O)ccc21 [Example 182]	57%
O=C(c1ccc(OCCN2CCCC2)cc1)n1c(-c2ccc(Sc3ccccc3)cc2)cc2cc(O)ccc21 [Example 234, 5-hydroxy-2-(4-phenylthiophenyl)-1-[4-{2-(1-pyrrolidinyl)ethoxy}benzoyl]indole]	50%
O=C(c1ccc(OCCN2CCCCC2)cc1)n1c(-c2ccc(Sc3ccccc3)cc2)cc2cc(O)ccc21 [Example 236]	53%
O=C(c1ccc(OCCCN2CCCC2)cc1)n1c(-c2ccc(Sc3ccccc3)cc2)cc2cc(O)ccc21 [Example 238]	49%
O=C(c1ccc(OCCCN2CCCCC2)cc1)n1c(-c2ccc(Sc3ccccc3)cc2)cc2cc(O)ccc21 [Example 239]	73%
O=C(c1ccc(OCCn2cncn2)cc1)n1c(-c2ccc(Sc3ccccc3)cc2)cc2cc(O)ccc21 [Example 246]	57%
CSc1ccc(-c2c(C)c3cc(O)ccc3n2CCCCCCCC(=O)N(C)C)cc1 [Example 253]	94%
CSc1ccc(-c2c(C)c3cc(O)ccc3n2CCCCCCCC(=O)NC2CCC2)cc1 [Example 254]	78%
CSc1ccc(-c2c(C)c3cc(O)ccc3n2CCCCCCCC(=O)NC(C)(C)C)cc1 [Example 255]	41%
CSc1ccc(-c2c(C)c3cc(O)ccc3n2CCCCCCCC(=O)N2CCCCC2)cc1 [Example 258]	41%
CSc1ccc(-c2c(C)c3cc(O)ccc3n2CCCCCCCCN2CCOCC2)cc1 [Example 272]	48%
CSc1ccc(-c2c(C)c3cc(O)ccc3n2CCCCCCCCNC(C)C)cc1 [Example 274]	65%
CSc1ccc(-c2c(C)c3cc(O)ccc3n2CCCCCCCCN(C)C)cc1 [Example 279]	82%
CSc1ccc(-c2c(C)c3cc(O)ccc3n2CCCCCCCCNC2CCC2)cc1 [Example 280]	116%
CSc1ccc(-c2c(C)c3cc(O)ccc3n2CCCCCCCCN2CCCC2)cc1 [Example 281, 5-hydroxy-3-methyl-2-(4-methylthiophenyl)-1-[8-(1-pyrrolidinyl)octyl]indole]	121%
CSc1ccc(-c2c(C)c3cc(O)ccc3n2CCCCCCCCNC(C)(C)C)cc1 [Example 282]	114%
CSc1ccc(-c2c(C)c3cc(O)ccc3n2CCCCCCCCN2CCCCC2)cc1 [Example 285]	93%
CCSc1ccc(-c2cc3cc(O)ccc3n2CCCCCCCCNC(C)C)cc1 [Example 286]	51%
CSc1ccc(-c2c(C)c3cc(O)ccc3n2CCCCCCN2CCSC2)cc1 [Example 291]	70%
CSc1ccc(-c2c(C)c3cc(O)ccc3n2CCCCCCNC(C)c2ccccc2)cc1 (stereo not drawn) [Example 312, 5-hydroxy-3-methyl-2-(4-methylthiophenyl)-1-[6-(1-phenylethyl)aminohexyl]indole]	42%

Source: patent publication US5496844A, “Indole derivatives” (Otsuka Pharmaceutical Factory, Inc., priority 1992, dated 1996)
